Experimental data reported in patent US8119633B2, “Substituted sulfonamide compounds” (Gruenenthal GmbH, priority 2007, dated 2012).

How the values were obtained:
[1] = biological target: T1, bradykinin receptor 1 (B1R) of the rat (Rattus norvegicus, UniProt P97583); assay: Functional study on the bradykinin receptor 1 (B1R), rat: FLIPR Ca2+ influx assay; assay type: cell-based; settings: test substance 10 μM; CHO K1 cells transfected with rat B1R; Des-Arg9-bradykinin at EC80; Ca2+ influx (Fluo-4, FLIPR); read-out: B1R antagonism, rat [10 μM] % inhibition
T1 construct: expressed in transfected cells; host or cells: CHO K1 cells
T1 sequence (P97583 1-337): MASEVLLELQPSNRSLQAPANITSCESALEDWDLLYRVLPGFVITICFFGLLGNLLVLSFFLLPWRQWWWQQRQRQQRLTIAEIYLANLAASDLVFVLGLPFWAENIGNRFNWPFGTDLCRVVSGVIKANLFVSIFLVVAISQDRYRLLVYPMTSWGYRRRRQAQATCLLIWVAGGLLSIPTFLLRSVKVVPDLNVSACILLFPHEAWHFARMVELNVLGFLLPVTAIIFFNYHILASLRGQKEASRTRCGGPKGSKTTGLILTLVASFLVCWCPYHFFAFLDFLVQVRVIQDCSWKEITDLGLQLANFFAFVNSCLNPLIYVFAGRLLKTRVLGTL
Method in brief: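 CHO K1 cells stably expressing rat B1R, Fluo-4-loaded, read on FLIPR (ex 488/em 540 nm, peak fluorescence). Test substances added first (agonism vs 10 μM Des-Arg9-bradykinin), then after 10-20 min Des-Arg9-bradykinin at EC80; % inhibition and IC50 from concentration series, n=2-3, N≥2.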

[2] = biological target: T2, human bradykinin receptor 1 (B1R) (Homo sapiens, UniProt P46663); assay: Functional study on the bradykinin receptor 1 (B1R), human: FLIPR Ca2+ influx assay; assay type: cell-based; settings: test substance 10 μM; CHO K1 cells transfected with human B1R; Lys-Des-Arg9-bradykinin at EC80; Ca2+ influx (Fluo-4, FLIPR); read-out: B1R antagonism, human [10 μM] % inhibition
T2 construct: expressed in transfected cells; host or cells: CHO K1 cells
T2 sequence (P46663 1-353): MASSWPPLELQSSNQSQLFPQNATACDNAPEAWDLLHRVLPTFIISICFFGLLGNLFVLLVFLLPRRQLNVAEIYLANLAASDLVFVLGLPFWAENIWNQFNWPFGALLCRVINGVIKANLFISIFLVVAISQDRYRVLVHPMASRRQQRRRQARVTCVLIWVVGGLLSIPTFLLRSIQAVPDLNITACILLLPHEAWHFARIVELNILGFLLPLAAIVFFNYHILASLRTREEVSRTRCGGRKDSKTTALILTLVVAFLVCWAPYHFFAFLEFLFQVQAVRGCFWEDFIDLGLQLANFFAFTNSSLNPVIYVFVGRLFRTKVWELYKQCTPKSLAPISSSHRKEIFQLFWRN
Method in brief: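 CHO K1 cells stably expressing human B1R were loaded with Fluo-4, and Ca2+ fluorescence was read on FLIPR (ex 488/em 540 nm). Compound was added first (10 μM for % activation against Lys-Des-Arg9-bradykinin ≥0.5 nM). After 10-20 min, Lys-Des-Arg9-bradykinin was added at EC80 for % inhibition; IC50 came from concentration series, n=2-3, N≥2.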

human μ-opiate receptor = biological target: T3, human μ-opiate receptor (Homo sapiens, UniProt P35372); assay: Affinity for the human μ-opiate receptor ([3H]-naloxone displacement, SPA); settings: test substance 1 μmol/l; inhibition of specific [3H]-naloxone binding; CHO-K1 receptor membrane preparation; read-out: μ-Opioid receptor [1 μM] % inhibition
T3 construct: purchased PerkinElmer Life Sciences, Zaventem, Belgium RB-HOM; host or cells: CHO-K1 cells (membrane preparation)
T3 sequence (P35372 whole entry): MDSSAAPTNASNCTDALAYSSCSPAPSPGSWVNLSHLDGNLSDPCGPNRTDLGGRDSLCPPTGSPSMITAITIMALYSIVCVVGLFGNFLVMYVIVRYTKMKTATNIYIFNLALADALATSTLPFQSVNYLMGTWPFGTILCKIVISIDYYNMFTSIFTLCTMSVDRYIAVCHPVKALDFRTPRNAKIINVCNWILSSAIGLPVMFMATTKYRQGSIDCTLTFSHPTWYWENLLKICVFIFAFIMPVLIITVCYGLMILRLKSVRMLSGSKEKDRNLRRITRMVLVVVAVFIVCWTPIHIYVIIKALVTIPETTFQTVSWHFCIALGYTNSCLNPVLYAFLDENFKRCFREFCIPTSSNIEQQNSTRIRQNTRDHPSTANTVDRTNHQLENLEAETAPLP
Procedure: Studies of the Effectiveness of the Compounds According to the Invention Method for determining the affinity for the human μ-opiate receptor
The receptor affinity for the human μ-opiate receptor is determined in a homogeneous batch on microtitre plates. To this end, serial dilutions of the substances to be tested are incubated for 90 minutes at room temperature with a receptor membrane preparation (15-40 μg of protein/250 μl of incubation batch) of CHO-K1 cells, which express the human μ-opiate receptor (RB-HOM receptor membrane preparation from PerkinElmer Life Sciences, Zaventem, Belgium), in the presence of 1 nmol/l of the radioactive ligand [^3H]-naloxone (NET719, PerkinElmer Life Sciences, Zaventem, Belgium) and 1 mg of WGA-SPA beads (wheatgerm agglutinin SPA beads from Amersham/Pharmacia, Freiburg, Germany) in a total volume of 250 μl. The incubation buffer used is 50 mmol/l of Tris-HCl supplemented with 0.06 wt. % bovine serum albumin. In order to determine non-specific binding, 100 μmol/l of naloxone is additionally added. When the ninety-minute incubation time has ended, the microtitre plates are centrifuged off for 20 minutes at 1000 g and the radioactivity is measured in a β-counter (Microbeta-Trilux, PerkinElmer Wallac, Freiburg, Germany). The percentage displacement of the radioactive ligand from its binding to the human μ-opiate receptor at a concentration of the test substances of 1 μmol/l is determined and stated as the percentage inhibition of specific binding. On the basis of the percentage displacement by different concentrations of the test substances, IC50 inhibitory concentrations, which effect 50% displacement of the radioactive ligand, are calculated. Ki values for the test substances are obtained by conversion by means of the Cheng-Prusoff equation.

Row | SMILES | inhibition at 10 µM [1] [%] | inhibition at 10 µM [2] [%] | inhibition at 1 µM (human μ-opiate receptor) [%]
1 | CN(C)C(c1ccccc1)C1CCC(NC(=O)CCCCN(C)S(=O)(=O)c2c(Cl)cc(Cl)cc2Cl)CC1 (stereo not drawn) [Example 5, N—(4-((Dimethylamino)(phenyl)methyl)cyclohexyl)-5-(2,4,6-trichloro-N-methylphenylsulfonamido)pentanamide] | 60 | 101 | 89
2 | CN(CCCCC(=O)NC1CCC(C(c2ccccc2)N2CCCCC2)CC1)S(=O)(=O)c1c(Cl)cc(Cl)cc1Cl (stereo not drawn) [Example 6, N—(4-(Phenyl(piperidin-1-yl)methyl)cyclohexyl)-5-(2,4,6-trichloro-N-methylphenylsulfonamido)pentanamide] | 41 | 75.1 | 29
3 | CN(C)C(c1ccccc1)C1CCC(CNC(=O)CCCCN(C)S(=O)(=O)c2c(Cl)cc(Cl)cc2Cl)CC1 (stereo not drawn) [Example 7, N—((4-((Dimethylamino)(phenyl)methyl)cyclohexyl)methyl)-5-(2,4,6-trichloro-N -methylphenylsulfonamido)pentanamide] | 59 | 102 | 96
4 | CN(C)C(c1ccccc1)C1CCC(CNC(=O)CC2CCCCN2S(=O)(=O)c2cccc(C(F)(F)F)c2)CC1 (stereo not drawn) [Example 8, N—((4-((Dimethylamino)(phenyl)methyl)cyclohexyl)methyl)-2-(1-(3-(trifluoromethyl)phenylsulfonyl)piperidin-2-yl)acetamide] | 9 | 71.4 | 94
5 | O=C(CC1C(=O)Nc2ccccc2N1S(=O)(=O)c1ccc(Cl)c(Cl)c1)NC1CCC(C(c2ccccc2)N2CCOCC2)CC1 (stereo not drawn) [Example 54, 2-[1-(3,4-dichloro-benzenesulfonyl)-3-oxo-1,2,3,4-tetrahydro-quinoxalin-2-yl]-N-[4-(morpholin-4-yl-phenyl-methyl)-cyclohexyl]-acetamide] | 44 | 105 | 12
6 | O=C(CC1C(=O)NCCN1S(=O)(=O)c1ccc(Cl)cc1Cl)NCC1CCC(C(c2ccccc2)N2CCOCC2)CC1 (stereo not drawn) [Example 55, 2-[1-(2,4-dichloro-benzenesulfonyl)-3-oxo-piperazin-2-yl]-N-[4-(morpholin-4-yl-phenyl-methyl)-cyclohexylmethyl]-acetamide] | 26 | 103 | 24
7 | O=C(CC1C(=O)NCCN1S(=O)(=O)c1ccc(Cl)cc1Cl)NCC1CCC(C(CCc2ccccc2)N2CCOCC2)CC1 (stereo not drawn) [Example 56, 2-[1-(2,4-dichloro-benzenesulfonyl)-3-oxo-piperazin-2-yl]-N-[4-(1-morpholin-4-yl-3-phenyl-propyl)-cyclohexylmethyl]-acetamide] | 20 | 104 | 11
8 | O=C(CC1C(=O)NCCN1S(=O)(=O)c1ccc(Cl)cc1Cl)NCC1CCC(C(CCc2ccccc2)N2CCCC2)CC1 (stereo not drawn) [Example 57, 2-[1-(2,4-dichloro-benzenesulfonyl)-3-oxo-piperazin-2-yl]-N-[4-(3-phenyl-1-pyrrolidin-1-yl-propyl)-cyclohexylmethyl]-acetamide] | 27 | 104 | 25
9 | O=C(CC1C(=O)NCCN1S(=O)(=O)c1ccc(Cl)cc1Cl)NCC1CCC(C(c2ccccc2)N2CCCC2)CC1 (stereo not drawn) [Example 58, 2-[1-(2,4-dichloro-benzenesulfonyl)-3-oxo-piperazin-2-yl]-N-[4-(phenyl-pyrrolidin-1-yl-methyl)-cyclohexylmethyl]-acetamide] | 11 | 104 | 70
10 | O=C(CC1C(=O)NCCN1S(=O)(=O)c1ccc(Cl)cc1Cl)NC1CCC(C(CCc2ccccc2)N2CCCCC2)CC1 (stereo not drawn) [Example 59, 2-[1-(2,4-dichloro-benzenesulfonyl)-3-oxo-piperazin-2-yl]-N-[4-(3-phenyl-1-piperidin-1-yl-propyl)-cyclohexyl]-acetamide] | 27 | 104 | 61
11 | O=C(CC1C(=O)NCCN1S(=O)(=O)c1ccc(Cl)cc1Cl)NC1CCC(C(CCc2ccccc2)N2CCOCC2)CC1 (stereo not drawn) [Example 60, 2-[1-(2,4-dichloro-benzenesulfonyl)-3-oxo-piperazin-2-yl]-N-[4-(1-morpholin-4-yl-3-phenyl-propyl)-cyclohexyl]-acetamide] | 8 | 104 | 54
12 | CN1CCN(C(c2ccccc2)C2CCC(NC(=O)CC3C(=O)NCCN3S(=O)(=O)c3ccc(Cl)cc3Cl)CC2)CC1 (stereo not drawn) [Example 61, 2-[1-(2,4-dichloro-benzenesulfonyl)-3-oxo-piperazin-2-yl]-N-{4-[(4-methyl-piperazin-1-yl)-phenyl-methyl]-cyclohexyl}-acetamide] | 39 | 104 | 34
13 | O=C1NCCN(S(=O)(=O)c2ccc(Cl)cc2Cl)C1CC(=O)N1CCCCC1C(Cc1ccccc1)N1CCOCC1 (stereo not drawn) [Example 63, 4-(2,4-dichlorophenylsulfonyl)-3-(2-(2-(1-morpholino-2-phenylethyl)piperidin-1-yl)-2-oxoethyl)piperazin-2-one] | -3 | 28.6 | 47
14 | O=C(CC1C(=O)Nc2ccccc2N1S(=O)(=O)c1ccc(Cl)c(Cl)c1)NCC1CCC(C(c2ccccc2)N2CCOCC2)CC1 (stereo not drawn) [Example 64, 2-[1-(3,4-dichloro-benzenesulfonyl)-3-oxo-1,2,3,4-tetrahydro-quinoxalin-2-yl]-N-[4-(morpholin-4-yl-phenyl-methyl)-cyclohexylmethyl]-acetamide] | 29 | 104 | 10
15 | O=C(CC1C(=O)Nc2ccccc2N1S(=O)(=O)c1ccc(Cl)c(Cl)c1)NCC1CCC(C(CCc2ccccc2)N2CCOCC2)CC1 (stereo not drawn) [Example 65, 2-[1-(3,4-dichloro-benzenesulfonyl)-3-oxo-1,2,3,4-tetrahydro-quinoxalin-2-yl]-N-[4-(1-morpholin-4-yl-3-phenyl-propyl)-cyclohexylmethyl]-acetamide] | 24 | 103 | 9
16 | O=C(CC1C(=O)Nc2ccccc2N1S(=O)(=O)c1ccc(Cl)c(Cl)c1)NCC1CCC(C(CCc2ccccc2)N2CCCC2)CC1 (stereo not drawn) [Example 66, 2-[1-(3,4-dichloro-benzenesulfonyl)-3-oxo-1,2,3,4-tetrahydro-quinoxalin-2-yl]-N-[4-(3-phenyl-1-pyrrolidin-1-yl-propyl)-cyclohexylmethyl]-acetamide] | 96 | 102 | 11
